Values quoted from earlier work in article PMC11859340, “The Therapeutic Potential of Spirooxindoles in Cancer: A Focus on p53–MDM2 Modulation” (Pharmaceuticals, 2025).
Read-outs that look alike come from different tables or passages of the source. Blank lines part the entries; values can stand above or below the molecule they belong to.

Columns and labels:
MCF7 “wild p53” = system: MCF7 “wild p53”; design: method as in PMID 37731691; details: MTT; read-out: IC50 against MCF7
MDA-MB-231 “mutant p53” = system: MDA-MB-231 “mutant p53”; design: method as in PMID 37731691; details: MTT; read-out: IC50 against MDA-MB-231
A549 (lung) [1] = system: A549 (lung); design: method as in PMID 26883465; details: MTT; read-out: IC50 against A549
HCT116 (colon) [2] = system: HCT116 (colon); design: method as in PMID 26883465; details: MTT; read-out: IC50 against HCT116
MDA-MB-231 (breast) [3] = system: MDA-MB-231 (breast); design: method as in PMID 26883465; details: MTT; read-out: IC50 against MDA-MB-231
A549 (lung) [4] = system: A549 (lung); design: method as in PMID 28797774; details: CCK-8; read-out: IC50 against A549
HCT116 (colon) [5] = system: HCT116 (colon); design: method as in PMID 28797774; details: CCK-8; read-out: IC50 against HCT116
MCF7 (breast) [6] = system: MCF7 (breast); design: method as in PMID 28797774; details: CCK-8; read-out: IC50 against MCF7
neuroblastoma = system: neuroblastoma; design: method as in PMID 29416773; details: oral 50 mg/kg body weight for 50 days, 4 days on and 2 days off
[7] = system: osteosarcoma, acute leukemia, prostate, colon, and dedifferentiated liposarcoma cancers; details: mouse xenograft models
MDA-MB-231 (breast) [8] = system: MDA-MB-231 (breast); design: method as in PMID 36174446; details: MTT; read-out: IC50 against MDA-MB-231
A549 (lung) [9] = system: A549 (lung); design: method as in PMID 36174446; details: MTT; read-out: IC50 against A549
MDM2 = target: MDM2; design: method as in PMID 36174446; details: read-out: KD against MDM2
PC3 (prostate) [10] = system: PC3 (prostate); design: method as in PMID 36174446; details: MTT; read-out: IC50 against PC3
HCT-116 (colon) = system: HCT-116 (colon); design: method as in PMID 36174446; details: MTT; read-out: IC50 against HCT-116
HeLa (cervical) = system: HeLa (cervical); design: method as in doi:10.31788/RJC.2023.1638506; details: MTT; read-out: IC50 against HeLa
PC3 (prostate) [11] = system: PC3 (prostate); design: method as in PMID 34684885; details: MTT; read-out: IC50 against PC3
MCF7 (breast) [12] = system: MCF7 (breast); design: method as in doi:10.31788/RJC.2023.1638506; details: MTT; read-out: IC50 against MCF7
breast MCF7 = system: breast MCF7; design: method as in PMID 31047751; details: CCK-8
HCT116 (p53^−/−) [13] = system: HCT116 (p53^−/−); design: method as in PMID 24268795; details: read-out: GI50 against HCT116 (p53^−/−)
MCF7 = system: MCF7; design: method as in PMID 25618595; details: MTT; read-out: IC50 against MCF7
HCT116 (colon) [14] = system: HCT116 (colon); design: method as in PMID 29302672; details: at 10 μM, CCK-8
lung A549 = system: lung A549; design: method as in PMID 31047751; details: CCK-8
colon HCT116 = system: colon HCT116; design: method as in PMID 31047751; details: at 10 μM, CCK-8
A549 (lung) [15] = system: A549 (lung); design: method as in PMID 29302672; details: at 10 μM, CCK-8
MCF7 (breast) [16] = system: MCF7 (breast); design: method as in PMID 29302672; details: at 10 μM, CCK-8
MD-MB-231 = system: MD-MB-231; design: method as in PMID 25618595; details: MTT; read-out: IC50 against MD-MB-231
[17] = system: HepG2 (hepatocellular wild p53 type); design: method as in PMID 24268795; details: read-out: GI50 against HepG2
HCT116 (p53^−/−) [18] = system: HCT116 (p53^−/−); design: method as in doi:10.1039/C5MD00450K; details: read-out: GI50 against HCT116 (p53^−/−)
PC-3 (p53−) = system: PC-3 (p53−); design: method as in PMID 30735387; details: MTT; read-out: IC50 against PC-3 (p53−)
HCT116 (p53^−/−) [19] = system: HCT116 (p53^−/−); design: method as in PMID 28987608; details: MTT; read-out: IC50 against HCT116 (p53^−/−)
p53 = system: p53; design: method as in doi:10.1080/10426507.2020.1723590
A549 (lung) [20] = system: A549 (lung); design: method as in doi:10.1080/10426507.2020.1723590; details: MTT; read-out: IC50 against A549
[21] = system: HEK293T (embryonic kidney); design: method as in doi:10.1080/10426507.2020.1723590; details: MTT; read-out: IC50 against HEK293T

IC50 (A549 (lung) [4]): 2.9 ± 0.2 µM
IC50 (HCT116 (colon) [5]): 1.8 ± 0.5 µM
IC50 (MCF7 (breast) [6]): 2.4 ± 0.1 µM
Structure (SMILES): CCN(CC)c1ccc(N2C[C@H]3[C@@H](CS[C@]4(C(=O)Nc5cccc(Br)c54)[C@@H]3c3ccc(Br)cc3)CC2=O)cc1 [143 (R = 4-(4-diethylamino)C6H4)]

IC50 (A549 (lung) [4]): 10 ± 0.8 µM
IC50 (A549 (lung) [1]): 2.22 µM
IC50 (breast MCF7; read-out: IC50 against MCF7): 12.1 µM
IC50 (HCT116 (colon) [5]): 14.9 ± 0.6 µM
GI50 (HCT116 (p53^−/−) [13]): 52.3 ± 1.15 µM
IC50 (MCF7): 11.6 µM
IC50 (MCF7 (breast) [6]): 28.4 ± 2.5 µM
IC50 (HCT116 (colon) [2]): 1.16 µM
IC50 (MDA-MB-231 (breast) [3]): 4.68 µM
IC50 (lung A549; read-out: IC50 against A549): 2.4 µM
GI50 [17]: 51.3 ± 1.04 µM
Structure (SMILES): COc1ccc(C2=N[C@@H](c3ccc(Cl)cc3)[C@@H](c3ccc(Cl)cc3)N2C(=O)N2CCNC(=O)C2)c(OC(C)C)c1 [nutlin-3, reference compound]
% inhibition, MCF7 (breast MCF7; at 10 μM): 32.8%
% inhibition, HCT116 (HCT116 (colon) [14]): 42.9%
% inhibition, A549 (lung A549; at 10 μM): 47.0%
% inhibition, HCT116 (colon HCT116): 64.4%
% inhibition, A549 (A549 (lung) [15]): 42.9%
% inhibition, MCF7 (MCF7 (breast) [16]): 33.1%
IC50 (MD-MB-231): 23.5 µM

GI50 (HCT116 (p53^−/−) [18]): 47.8 ± 1.9 µM
IC50 (PC-3 (p53−)): 28.1 to 29.6 µM
IC50 (HCT116 (p53^−/−) [19]): 47.8 ± 1.9 µM
Structure (SMILES): COc1ccc(C2=N[C@@H](c3ccc(Cl)cc3)[C@@H](c3ccc(Cl)cc3)N2C(=O)N2CCNC(=O)C2)c(OC(C)C)c1 [nutlin-3a, reference compound]
p53 reporter activation (p53; A549, 1.56 to 100 μM compound concentrations): 3.6 to 5.1 folds
p53 receptor activation (p53; A549, at 100 μM): 5.1 fold
IC50 (A549 (lung) [20]): 14.9 ± 0.6 µM
IC50 [21]: 10.4 ± 0.8 µM

Second part, the molecule before the results:

Structure (SMILES): O=C1N(CCn2cc(CO)nn2)c2cc(Br)ccc2[C@]12[C@@H](c1ccccc1)C(c1ccccc1)=NN2c1ccccc1 [101 (X = (CH2)2)]
IC50 (MCF7 “wild p53”): 11.9 µM
IC50 (MDA-MB-231 “mutant p53”): 9.3 µM

Structure (SMILES): COC(=O)C[C@@H]1CS[C@]2(C(=O)Nc3cccc(Br)c32)[C@H](c2ccc(Br)cc2)[C@H]1C=O [136 (R = 4-Br, R’ = 4-BrC6H4)]
IC50 (A549 (lung) [1]): 1.67 µM
IC50 (HCT116 (colon) [2]): 1.57 µM
IC50 (MDA-MB-231 (breast) [3]): 3.55 µM

Structure (SMILES): CC1(C)CCC2(CC1)N[C@@H](C(=O)N[C@@H]1CC[C@@H](C(N)=O)OC1)[C@H](c1ccnc(Cl)c1F)[C@]21C(=O)Nc2cc(Cl)ccc21 [Milademetan]
tumor growth and survival (neuroblastoma): tumor growth inhibition and extended survival

Structure (SMILES): CC(C)(C)C[C@@H]1N[C@@H](C(=O)N[C@H]2CC[C@H](O)CC2)[C@H](c2cccc(Cl)c2F)[C@]12C(=O)Nc1cc(Cl)ccc12 [SAR405838]
cancer inhibition [7]: recognizable or complete cancer inhibition

Structure (SMILES): O=C(c1nc2ccccc2[nH]1)[C@H]1[C@H](c2ccccc2)C2CC3CCCCC3N2[C@]12C(=O)Nc1ccc(Cl)cc12 (some centres unmarked) [compound 38]
IC50 (MDA-MB-231 (breast) [8]): 2.4 ± 0.2 µM
IC50 (A549 (lung) [9]): 7.8 ± 0.3 µM
Kd (MDM2): 7.94 µM
IC50 (PC3 (prostate) [10]): 3.4 ± 0.3 µM
IC50 (HCT-116 (colon)): 7.2 ± 0.3 µM

Structure (SMILES): COc1cccc2c1C(=O)c1c(O)c3c(c(O)c1C2=O)C[C@@](O)(C(=O)CO)C[C@@H]3O[C@H]1C[C@H](N)[C@H](O)[C@H](C)O1 [doxorubicin, reference compound]
IC50 (MDA-MB-231 (breast) [8]): 5.82 ± 0.4 µM
IC50 (A549 (lung) [9]): 11.5 ± 0.8 µM
IC50 (HeLa (cervical)): 65.3 µM
IC50 (PC3 (prostate) [11]): 1.9 ± 0.4 µM
IC50 (PC3 (prostate) [10]): 8.8 ± 0.3 µM
IC50 (MCF7 (breast) [12]): 59.4 µM
IC50 (HCT-116 (colon)): 13.1 ± 2.1 µM
